In patent publication US8080529B2, “Macrolides with anti-inflammatory activity” (Glaxo Group Limited, priority 2005, dated 2011):
Read-outs that look alike come from different tables or passages of the source.

What was measured:
TNF-α [1] = test: Inhibition of TNF-α production by stimulated human peripheral blood leukocytes in vitro; assay type: cell-based; settings: Homo sapiens, Leukocyte, read-out: Percentage of inhibition of TNF-α production
Summary of the method: (§1)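 Dextran-sedimented human PBL (3–5×10^6/well) preincubated 2 h at 37 °C with compounds at 50 μM or 10 μM, then stimulated overnight with LPS 2 μg/mL, PMA 1 μg/mL or zymosan 120 μg/mL. Supernatant cytokines quantified by sandwich ELISA; % inhibition versus stimulated untreated controls.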

IL-1α = test: Inhibition of IL-1 production by stimulated human peripheral blood leukocytes in vitro; assay type: cell-based; settings: Homo sapiens, Leukocyte, read-out: Percentage of inhibition of IL-1α production
IL-6 = test: Inhibition of IL-6 production by stimulated human peripheral blood leukocytes in vitro; assay type: cell-based; settings: Homo sapiens, Leukocyte, read-out: Percentage of inhibition of IL-6 production
Summary of the method: as §1

IL-8 = test: Inhibition of IL-8 production by stimulated human peripheral blood leukocytes in vitro; assay type: cell-based; settings: Homo sapiens, Leukocyte, read-out: Percentage of inhibition of IL-8 production
Summary of the method: as §1

[2] = system: human peripheral blood mononuclear cells (PBMC); test: Effects on human T-cell proliferation in vitro (3H-thymidine incorporation); assay type: cell-based; settings: Homo sapiens, PBMC, read-out: Percentage of inhibition of proliferation of stimulated PBMC
Summary of the method: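 Proliferation of human peripheral blood mononuclear cells (PBMC) was assessed in the presence of test compounds. During the final 18 h of culture each well received 1 μCi of ^3H-thymidine. Cells were then collected onto a 96-well filter with a multiple cell harvester, and ^3H-thymidine incorporation was counted on a TopCount NXT to give percentage inhibition of proliferation.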

Hep G2 = test: Cytotoxicity assay (MTT), Hep G2 cell line; assay type: cell-based; settings: 24 h
Summary of the method: (§2)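 Viability was read as MTT-formazan absorbance at 490 nm after 0.5-2 h with reagent. This followed 24 h compound exposure (50 μM, 12.5 μM) at 37° C in RPM medium. Result expressed as OD490 treated over untreated cells ×100.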

A549 = test: Cytotoxicity assay (MTT), A549 cell line; assay type: cell-based; settings: 24 h
Summary of the method: as §2

TNF-α [3] = test: Lipopolysaccharide induced TNF-α production in Balb/cJ mice; assay type: in vivo; settings: Mus musculus, ip, 1.5 h; 10 mg/kg intraperitoneally, 30 min before LPS; 90 min after LPS; read-out: % inhibition of TNF-α production (plasma)

Structure (SMILES) | inhibition at 10 µM (TNF-α [1]; LPS-stimulated PBL) [%] | inhibition at 10 µM (TNF-α [1]; PMA-stimulated PBL) [%] | inhibition at 10 µM (TNF-α [1]; zymosan-stimulated PBL) [%] | inhibition at 50 µM (TNF-α [1]; LPS-stimulated PBL) [%] | inhibition at 50 µM (TNF-α [1]; PMA-stimulated PBL) [%] | inhibition at 50 µM (TNF-α [1]; zymosan-stimulated PBL) [%] | inhibition at 10 µM (IL-1α; LPS-stimulated PBL) [%] | inhibition at 10 µM (IL-1α; PMA-stimulated PBL) [%] | inhibition at 10 µM (IL-1α; zymosan-stimulated PBL) [%] | inhibition at 50 µM (IL-1α; LPS-stimulated PBL) [%] | inhibition at 50 µM (IL-1α; PMA-stimulated PBL) [%] | inhibition at 50 µM (IL-1α; zymosan-stimulated PBL) [%] | inhibition at 10 µM (IL-6; LPS-stimulated PBL) [%] | inhibition at 10 µM (IL-6; PMA-stimulated PBL) [%] | inhibition at 10 µM (IL-6; zymosan-stimulated PBL) [%] | inhibition at 50 µM (IL-6; LPS-stimulated PBL) [%] | inhibition at 50 µM (IL-6; PMA-stimulated PBL) [%] | inhibition at 50 µM (IL-6; zymosan-stimulated PBL) [%] | inhibition at 10 µM (IL-8; LPS-stimulated PBL) [%] | inhibition at 10 µM (IL-8; PMA-stimulated PBL) [%] | further results
CC[C@H]1OC(=O)[C@H](C)[C@@H](O[C@H]2C[C@@](C)(OC)[C@@H](O)[C@H](C)O2)[C@H](C)[C@@H](O[C@@H]2O[C@H](C)C[C@H](N(C)C)[C@H]2O)[C@](C)(O)C[C@@H](C)CN(C)[C@H](C)[C@@H](O)[C@]1(C)O [azithromycin, reference compound] | 36 | 0 | 6 | 20 | 0 | 64 | 28 | 0 | 20 | 48 | 0 | 75 | 15 | 0 | 20 | 40 | 0 | 75 | 0 | 0 | inhibition at 10 µM (IL-8; zymosan-stimulated PBL): 0%; inhibition at 50 µM (IL-8; LPS-stimulated PBL): 0%; inhibition at 50 µM (IL-8; PMA-stimulated PBL): 0%; inhibition at 50 µM (IL-8; zymosan-stimulated PBL): 0%; inhibition at 10 µM ([2]; PHA): 5%; inhibition at 50 µM ([2]; PHA): 29%; inhibition at 10 µM ([2]; PMA + iono.): 9%; inhibition at 50 µM ([2]; PMA + iono.): 31%; Percentage of inhibition of cell growth (Hep G2; 12.5 μM): 0%; Percentage of inhibition of cell growth (Hep G2; 50 μM): 0%; Percentage of inhibition of cell growth (A549; 12.5 μM): 0%; Percentage of inhibition of cell growth (A549; 50 μM): 0%; inhibition in vivo at 10 mg/kg (TNF-α [3]): 54%
CC[C@H]1OC(=O)[C@H](C)[C@@H](O[C@H]2C[C@@](C)(OC)[C@@H](O)[C@H](C)O2)[C@H](C)[C@@H](O[C@@H]2O[C@H](C)C[C@H](N(C)C)[C@H]2O)[C@](C)(OC)C[C@@H](C)C(=O)[C@H](C)[C@@H](O)[C@]1(C)O [clarithromycin, reference compound] | 0 | 0 | 0 | 0 | 0 | 0 | 0 | 26 | 36 | 0 | 33 | 59 | 11 | 0 | 28 | 0 | 0 | 0 | 23 | 33 | inhibition at 10 µM (IL-8; zymosan-stimulated PBL): 0%; inhibition at 50 µM (IL-8; LPS-stimulated PBL): 0%; inhibition at 50 µM (IL-8; PMA-stimulated PBL): 0%; inhibition at 50 µM (IL-8; zymosan-stimulated PBL): 0%; inhibition at 10 µM ([2]; PHA): 0%; inhibition at 50 µM ([2]; PHA): 7%; inhibition at 10 µM ([2]; PMA + iono.): 9%; inhibition at 50 µM ([2]; PMA + iono.): 14%; Percentage of inhibition of cell growth (Hep G2; 12.5 μM): 0%; Percentage of inhibition of cell growth (Hep G2; 50 μM): 0%; Percentage of inhibition of cell growth (A549; 12.5 μM): 0%; Percentage of inhibition of cell growth (A549; 50 μM): 0%; inhibition in vivo at 10 mg/kg (TNF-α [3]): 63%
